# Measurements from patent publication US20240197761A1, “FUCOSYLATION AND IMMUNE MODULATION IN CANCER” (H. LEE MOFFITT CANCER CENTER AND RESEARCH INSTITUTE, INC., priority 2021, published 2024).
# Key:
# [1] = system: SW1 tumors; test: Anti-PD-1 mouse model, SW1; format: in vivo, C3H/HeN mice
# From the text: FIGS. 21A and 21B Administration of combination L-fucose and anti-PD-1 suppresses tumors and increases intra-tumoral CD4+T central and effector memory cells (a) Volumetric growth curves for SW1 tumors in C3H/HeN mice (left) and SM1 tumors in C57BL/6 mice (right) fed L-fucose (LF) and treated with PBS (control) or anti-PD-1. (concurrent initiation of LF anti-PD1 (▾)). The tumor growth curves are means±SEM from ≥7 mice per group. (b) Volumetric growth curves for SM1 tumors in C57BL/6 mice fed ±L-fucose (LF) and treated with PBS (control) or anti-PD-1 (PD-1). (concurrent initiation of LF±PD1 (▾)). The tumor growth curves are means±SEM from ≥7 mice per group. *=p<0.05. At Day 7 (prior to administration of LF or PD1), Day 21 (endpoint for tumors of control-treated mice), Day 31 (endpoint for tumors of LF-treated mice), Day 63 (endpoint for tumors of PD1-treated mice), the primary tumors (Tumor) and draining lymph nodes (LN) of 4-5 mice per treatment group were analyzed by flow cytometry for intratumor levels of CD4+ and CD8+T subpopulations (naive/terminal, stem central/central/effector memory) and dendritic cell (DC) subpopulations (cDC1, cDC2, and monocyte-derived DC (moDC)) as in FIG. 15. Proportions of CD4+, CD8+, and DC subpopulations in each organ at each timepoints are represented by the color-coded pie charts (each pie chart represents 4-5 mice). […]
# [2] = system: mouse splenic MDSC; test: Splenic MDSC proliferation with L-fuc or 2FF; format: cell-based; conditions: FIG. 3E
structure (smiles),measurement,setting,value
C[C@H](O)[C@@H](O)[C@@H](O)[C@H](O)C=O [L-fucose],efficacy of anti-PD1 in combination with oral L-fuc,[1],did not enhance
same,MDSC proliferation / MDSC populations,[2],increased
same,MDSC proliferation / MDSC populations,[2]; listed as L-fuc,increases
